The test deals with L1210 leukemia ip in BDF1 mice, survival T/C. In words: NCI In Vivo Anticancer Drug Screen. Data for tumor model L1210 Leukemia (intraperitoneal) in B6D2F1 (BDF1) mice. The following applies: endpoint: mean survival time, higher = longer survival. The essentials: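 Antitumor effect is assessed in tumor-bearing animals. Survival in the compound arm is compared with a vehicle-dosed control arm and expressed as their quotient.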

Setting [1] is: dose: 50.0 mg/kg/injection, schedule: Q01DX009 (ip), vehicle: saline.
[2] abbreviates: dose: 100.0 mg/kg/injection, schedule: Q04DX003 (ip), vehicle: saline.
Where [3] appears, read: dose: 200.0 mg/kg/injection, schedule: Q04DX003 (ip), vehicle: saline.
Where [4] appears, read: dose: 400.0 mg/kg/injection, schedule: Q04DX003 (ip), vehicle: saline.
[5] abbreviates: dose: 100.0 mg/kg/injection, schedule: Q04DX003 (ip), vehicle: saline with Tween-80.
Setting [6] is: dose: 100.0 mg/kg/injection, schedule: Q01DX001 (ip), vehicle: saline.
Where [7] appears, read: dose: 200.0 mg/kg/injection, schedule: Q01DX001 (ip), vehicle: saline.
Setting [8] is: dose: 400.0 mg/kg/injection, schedule: Q01DX001 (ip), vehicle: saline.
[9] abbreviates: dose: 8.0 mg/kg/injection, schedule: Q01DX Z (ip), vehicle: carboxymethylcellulose (CMC).

Molecules are shown by their SMILES. Where “and” joins values, the source holds several entries; their conditions need not be identical. Equal entries are not always repeated. Inconclusive results and toxic doses are left out.

On to `c1ccc(C(CCN2CCCC2)c2ccccn2)cc1` (configuration not stated), for which the T/C runs as follows: (dose: 44.0 mg/kg/injection, schedule: Q01DX Z (ip), vehicle: saline) 90 % of control; (dose: 66.0 mg/kg/injection, schedule: Q01DX Z (ip), vehicle: saline) 89 % of control.

In the case of `CCP(=S)(CP(=S)(c1ccccc1)c1ccccc1)c1ccccc1` (configuration not stated), the T/C reads like this: (dose: 100.0 mg/kg/injection, schedule: Q04DX002 (sc), vehicle: olive oil, sesame oil, peanut oil) 104 % of control; (dose: 200.0 mg/kg/injection, schedule: Q04DX002 (sc), vehicle: olive oil, sesame oil, peanut oil) 104 % of control; (dose: 400.0 mg/kg/injection, schedule: Q04DX002 (sc), vehicle: olive oil, sesame oil, peanut oil) 104 % of control.

As to `CC1=C/C(=N/N(C)C)CC(C)C1` (configuration not stated), the T/C reads like this: (dose: 12.5 mg/kg/injection, schedule: Q01DX009 (ip), vehicle: saline) 96 % of control; (dose: 25.0 mg/kg/injection, schedule: Q01DX009 (ip), vehicle: saline) 102 % of control; under setting [1], 95 % of control; under setting [2], 100 % of control; under setting [3], 109 % of control; under setting [4], 112 % of control.

Consider `CC1(C)N=C(N)N=C(N)N1c1ccc(CCC(=O)Nc2cccc(S(=O)(=O)F)c2)cc1`, for which the T/C (dose: 0.8 mg/kg/injection, schedule: Q01DX009 (ip), vehicle: saline) was 98 % of control; the T/C (dose: 4.0 mg/kg/injection, schedule: Q01DX009 (ip), vehicle: saline) was 106 % of control; the T/C (dose: 20.0 mg/kg/injection, schedule: Q01DX009 (ip), vehicle: saline) was 108 % of control; the T/C (dose: 25.0 mg/kg/injection, schedule: Q#A X018 (ip), vehicle: saline) is 119 % of control; the T/C under setting [1] was 111 % of control; the T/C (dose: 50.0 mg/kg/injection, schedule: Q#A X018 (ip), vehicle: saline) is 113 % of control. Also, the T/C (dose: 100.0 mg/kg/injection, schedule: Q01DX009 (ip), vehicle: saline) was 112 % of control and 122 % of control; the T/C (dose: 100.0 mg/kg/injection, schedule: Q#A X018 (ip), vehicle: saline) is 88 % of control.

As for `CC(C)C(CN)(CCN1CCCCC1)Cc1cccc2ccccc12` (configuration not stated), under setting [5], the T/C is 97 % of control.

With `COc1cc(CCC(=O)O)cc(/C=N/NC(N)=O)c1O`, the T/C by setting is: under setting [6], 101 % of control; under setting [7], 89 % of control; under setting [8], 95 % of control.

In the case of `COc1ccc(N=NN(C)C(C)=O)cc1`, the T/C by setting is: (dose: 50.0 mg/kg/injection, schedule: Q01DX009 (ip), vehicle: Klucel (hydroxypropylcellulose) (HPC)) 102 % of control; (dose: 75.0 mg/kg/injection, schedule: Q01DX001 (ip), vehicle: Klucel (hydroxypropylcellulose) (HPC)) 101 % of control; (dose: 100.0 mg/kg/injection, schedule: Q01DX009 (ip), vehicle: Klucel (hydroxypropylcellulose) (HPC)) 103 % of control; (dose: 150.0 mg/kg/injection, schedule: Q01DX001 (ip), vehicle: Klucel (hydroxypropylcellulose) (HPC)) 93 % of control; (dose: 200.0 mg/kg/injection, schedule: Q01DX009 (ip), vehicle: Klucel (hydroxypropylcellulose) (HPC)) 100 % of control; (dose: 300.0 mg/kg/injection, schedule: Q01DX001 (ip), vehicle: Klucel (hydroxypropylcellulose) (HPC)) 96 % of control.

On to `COC(=O)c1cc(C(C)=O)ccc1OC(=O)c1ccccc1`, for which the T/C (dose: 100.0 mg/kg/injection, schedule: Q01DX009 (ip), vehicle: saline with Tween-80) was 98 % of control; the T/C under setting [5] is 88 % of control; the T/C (dose: 200.0 mg/kg/injection, schedule: Q01DX009 (ip), vehicle: saline with Tween-80) was 94 % of control; the T/C (dose: 200.0 mg/kg/injection, schedule: Q04DX003 (ip), vehicle: saline with Tween-80) was 90 % of control; the T/C (dose: 400.0 mg/kg/injection, schedule: Q01DX009 (ip), vehicle: saline with Tween-80) was 100 % of control; the T/C (dose: 400.0 mg/kg/injection, schedule: Q04DX003 (ip), vehicle: saline with Tween-80) was 108 % of control.

Regarding `CN=C(NCCCOC)c1ccc(NC(=O)c2ccc(C(=O)Nc3ccc(C(=NC)NCCCOC)cc3)c([N+](=O)[O-])c2)cc1`, the T/C was 91 % of control (dose: 1.0 mg/kg/injection, schedule: Q01DX Z (ip), vehicle: carboxymethylcellulose (CMC)); 92 % of control (dose: 1.88 mg/kg/injection, schedule: Q01DX Z (ip), vehicle: saline); 91 % of control (dose: 2.0 mg/kg/injection, schedule: Q01DX Z (ip), vehicle: carboxymethylcellulose (CMC)); 98 % of control (dose: 3.75 mg/kg/injection, schedule: Q01DX Z (ip), vehicle: saline); 92 % of control (dose: 4.0 mg/kg/injection, schedule: Q01DX Z (ip), vehicle: carboxymethylcellulose (CMC)); 104 % of control (dose: 7.5 mg/kg/injection, schedule: Q01DX Z (ip), vehicle: saline). Moreover, the T/C under setting [9] was 95 % of control; the T/C (dose: 15.0 mg/kg/injection, schedule: Q01DX Z (ip), vehicle: carboxymethylcellulose (CMC)) is 101 % of control; the T/C (dose: 15.0 mg/kg/injection, schedule: Q01DX Z (ip), vehicle: saline) is 92 % of control.

`COc1ccc(NC(=S)Nc2ccccn2)cc1`: the T/C is, setting by setting: (dose: 100.0 mg/kg/injection, schedule: Q01DX009 (ip), vehicle: other) 106 % of control; under setting [2], 101 % of control; (dose: 200.0 mg/kg/injection, schedule: Q01DX009 (ip), vehicle: other) 97 % of control; under setting [3], 87 % of control; (dose: 400.0 mg/kg/injection, schedule: Q01DX009 (ip), vehicle: other) 103 % of control; under setting [4], 98 % of control.

In the case of `Cc1cc(NC(=O)Nc2ccc(Cl)cc2)no1`, the T/C reads like this: (dose: 100.0 mg/kg/injection, schedule: Q04DX003 (ip), vehicle: saline sonified) 95 % of control; (dose: 200.0 mg/kg/injection, schedule: Q04DX003 (ip), vehicle: saline sonified) 87 % of control; (dose: 400.0 mg/kg/injection, schedule: Q04DX003 (ip), vehicle: saline sonified) 87 % of control.

Take `O=C(NNC(=O)Nc1ccc(C2=NCCN2)cc1)Nc1ccc(C2=NCCN2)cc1`: the T/C is 95 % of control under setting [9]; 98 % of control (dose: 16.0 mg/kg/injection, schedule: Q01DX Z (ip), vehicle: carboxymethylcellulose (CMC)); 108 % of control (dose: 32.0 mg/kg/injection, schedule: Q01DX Z (ip), vehicle: carboxymethylcellulose (CMC)); 165 % of control (dose: 64.0 mg/kg/injection, schedule: Q01DX Z (ip), vehicle: carboxymethylcellulose (CMC)).

As for `O=C(Nc1ccccc1)C(Cl)(Cl)Cl`, the T/C reads like this: (dose: 50.0 mg/kg/injection, schedule: Q01DX001 (ip), vehicle: other) 104 % of control; (dose: 100.0 mg/kg/injection, schedule: Q01DX001 (ip), vehicle: other) 102 % of control; (dose: 100.0 mg/kg/injection, schedule: Q04DX002 (ip), vehicle: Klucel (hydroxypropylcellulose) (HPC)) 106 % of control; (dose: 200.0 mg/kg/injection, schedule: Q01DX001 (ip), vehicle: other) 102 % of control; (dose: 200.0 mg/kg/injection, schedule: Q04DX002 (ip), vehicle: Klucel (hydroxypropylcellulose) (HPC)) 92 % of control; (dose: 400.0 mg/kg/injection, schedule: Q01DX001 (ip), vehicle: other) 104 % of control. Besides, the T/C (dose: 400.0 mg/kg/injection, schedule: Q04DX002 (ip), vehicle: Klucel (hydroxypropylcellulose) (HPC)) was 89 % of control.

As for `Cc1ncc(C(N)=O)c(C)n1`, the T/C reads like this: under setting [6], 95 % of control; under setting [7], 101 % of control; under setting [8], 101 % of control.

The record behind these values is PubChem BioAssay AID248 (DTP/NCI, 2004).
